Patent US9365540B2, “Benzimidazole derivatives as MCH receptor antagonists” (Takeda Pharmaceutical Company Limited, priority 2012, dated 2016)

What follows are molecules tested against T1, human MCH receptor 1 (MCHR1) (Homo sapiens, UniProt Q99705) (assay: human MCH receptor 1 (MCHR1) competitive binding assay with [125I]-MCH(4-19)). Conditions: test compound 0.1 μM, human MCHR1-expressing CHO cell membrane fraction, 0.1 µM.
T1 construct: expressed in transfected cells; host or cells: CHO cell clone 57 (membrane fraction)
T1 sequence (Q99705 whole entry): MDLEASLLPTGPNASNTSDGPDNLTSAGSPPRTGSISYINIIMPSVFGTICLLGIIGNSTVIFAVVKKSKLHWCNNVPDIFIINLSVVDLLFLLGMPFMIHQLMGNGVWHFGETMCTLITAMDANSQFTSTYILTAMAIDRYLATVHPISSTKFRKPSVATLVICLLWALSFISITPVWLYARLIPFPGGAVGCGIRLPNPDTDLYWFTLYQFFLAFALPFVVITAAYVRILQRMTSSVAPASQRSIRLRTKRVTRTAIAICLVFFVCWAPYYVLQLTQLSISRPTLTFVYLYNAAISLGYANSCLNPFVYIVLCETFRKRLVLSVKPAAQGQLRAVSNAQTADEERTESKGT
Description: Determination of human MCH receptor 1 (MCHR1) competitive inhibitory activity of test compound using binding assay
1. Preparation of Membrane Fraction
Using human MCHR1 (=SLC-1 receptor)-expressing CHO cell clone 57 described in WO01/82925, MCHR1-expressing CHO cell membrane fractions were prepared by the following method.
In phosphate buffered saline (pH 7.4) supplemented with 5 mM EDTA (ethylenediaminetetraacetic acid) were respectively suspended human MCHR1-expressing CHO cells (1×10^8 cells) and centrifuged. Homogenate buffer (10 mL, 10 mM NaHCO3, 5 mM EDTA, pH 7.5, 0.5 mM PMSF (phenylmethylsulfonyl fluoride), 20 mg/L leupeptin, 4 mg/L E-64, 1 mg/L pepstatin A) was added to the pellets of the cells and, using Polytron Homogenizer, the mixture was homogenated. The supernatant obtained after centrifugation at 400×g for 10 min was further centrifuged at 100,000×g for 1 hr to give precipitate of the membrane fraction. The precipitate were suspended in 2 mL of assay buffer [20 mM Tris-HCl (pH 7.5), 5 mM EDTA, 0.5 mM PMSF, 20 mg/L leupeptin, 4 mg/L E-64, 1 mg/L pepstatin A]. The membrane fractions were suspended in assay buffer to a protein concentration of 2 mg/mL, and after dispensing, preserved at −80° C. and used upon thawing each time when in use.
The MCHR1 ligand binding inhibitory activity of the test compound was determined as follows.
An MCHR1-expressing CHO cell membrane fraction (173 μL) diluted with an assay buffer was dispensed to a 96 well polypropylene plate (3363, Corning). DMSO solution (2 μL), 33 μM cold MCH(1-19) diluted with DMSO solution (2 μL), or a test compound solution diluted with DMSO solution to various concentrations (2 μL) was added, and lastly, [^125I]-MCH (4-19) diluted with assay buffer (hereinafter, sometimes to be referred to as “hot MCH”, 25 μL) was added to each well. The mixture was reacted with stirring at room temperature for 1 hr, and the plate was set on FilterMate Harvester (PerkinElmer). Using a treating glass filter plate (GF/C, PerkinElmer) with polyethyleneimine, which had been previously set, the plate was suction-filtered and washed three times with washing buffer (50 mM Tris-HCl buffer pH 7.5). The glass filter plate was dried, MicroScinti0 (PerkinElmer) was added at 25 μL/well, and the resulting radioactivity was measured by TopCount liquid scintillation counter (PerkinElmer). The binding inhibition rate of the test compound was calculated by the following formula. Binding inhibition (%)=100−(radioactivity upon addition of test compound and hot MCH−radioactivity upon addition of cold MCH and hot MCH solution)/(radioactivity upon addition of DMSO solution and hot MCH−radioactivity upon addition of cold MCH and hot MCH solution)×100
The binding inhibition rates (%) of test compounds (0.1 μM) as measured using human MCHR1-expressing CHO cell are shown in Table 2.

| Binding inhibition rate % (0.1 μM) [%] | SMILES |
| --- | --- |
| 62 | CCc1nc2ccc(-n3ccc(OCc4ccccc4)cc3=O)cc2n1C [Example 47, 4-(Benzyloxy)-1-(2-ethyl-1-methyl-1H-benzimidazol-6-yl)pyridin-2(1H)-one] |
| 91 | Cn1c(C2CC2C(C)(C)O)nc2ccc(-n3ccc(OCc4ccc(Cl)cc4)cc3=O)cc21 (stereo not drawn) [Example 154, 4-((4-Chlorobenzyl)oxy)-1-(2-((1R*,2S*)-2-(2-hydroxypropan-2-yl)cyclopropyl)-1-methyl-1H-benzimidazol-6-yl)pyridin-2(1H)-one] |
| 89 | Cn1c(C2CC2C(C)(C)F)nc2ccc(-n3ccc(OCc4ccc(Cl)cc4)cc3=O)cc21 (stereo not drawn) [Example 209, 4-((4-Chlorobenzyl)oxy)-1-(2-((1R*,2S*)-2-(2-fluoropropan-2-yl)cyclopropyl)-1-methyl-1H-benzimidazol-6-yl)pyridin-2(1H)-one] |

Same assay, conditions: test compound 0.1 μM, human MCHR1-expressing CHO cell membrane fraction, read-out: Binding inhibition rate % (0.1 μM)

| SMILES | inhibition at 0.1 µM [%] |
| --- | --- |
| CCc1nc2ccc(-n3ccc(OCc4ccccc4)cc3=O)cc2n1C [Example 210, 4-(Benzyloxy)-1-(2-ethyl-1-methyl-1H-benzimidazol-6-yl)pyridin-2(1H)-one] | 51 |
| CCC(=O)c1nc2ccc(-n3ccc(OCc4ccc(Cl)cc4)cc3=O)cc2n1C [Example 208, 4-((4-Chlorobenzyl)oxy)-1-(1-methyl-2-propanoyl-1H-benzimidazol-6-yl)pyridin-2(1H)-one] | 39 |
| Cn1c(C2CC2C(C)(C)F)nc2ccc(-n3ccc(OCc4ccc(Cl)cc4)cc3=O)cc21 (stereo not drawn) [Example 207, 4-((4-Chlorobenzyl)oxy)-1-(2-((1R*,2S*)-2-(2-fluoropropan-2-yl)cyclopropyl)-1-methyl-1H-benzimidazol-6-yl)pyridin-2(1H)-one] | 85 |
| Cn1c(C2CC2)nc2ccc(-n3ccc(OCc4cc(Br)c(Cl)s4)cc3=O)cc21 [Example 232, 4-((4-Bromo-5-chloro-2-thienyl)methoxy)-1-(2-cyclopropyl-1-methyl-1H-benzimidazol-6-yl)pyridin-2(1H)-one] | 73 |
| CCc1nc2ccc(-n3ccc(OCc4ccsc4F)cc3=O)cc2n1C [Example 234, 1-(2-Ethyl-1-methyl-1H-benzimidazol-6-yl)-4-((2-fluoro-3-thienyl)methoxy)pyridin-2(1H)-one] | 50 |
| CCc1ncoc1-c1nc2ccc(-n3ccc(OCc4ccc(F)cc4)cc3=O)cc2n1C [Example 201, 1-(2-(4-Ethyl-1,3-oxazol-5-yl)-1-methyl-1H-benzimidazol-6-yl)-4-((4-fluorobenzyl)oxy)pyridin-2(1H)-one] | 84 |
| CCC(O)(CC)[C@H]1C[C@H]1c1nc2ccc(-n3ccc(OCc4ccc(Cl)cc4)cc3=O)cc2n1C (racemic) [Example 206, 4-((4-Chlorobenzyl)oxy)-1-(2-((1RS,2SR)-2-(3-hydroxypentan-3-yl)cyclopropyl)-1-methyl-1H-benzimidazol-6-yl)pyridin-2(1H)-one] | 95 |
| Cn1c([C@@H]2C[C@@H]2C(C)(C)O)nc2ccc(-n3ccc(OCc4ccccc4)cc3=O)cc21 (racemic) [Example 152, 4-(Benzyloxy)-1-(2-((1RS,2SR)-2-(2-hydroxypropan-2-yl)cyclopropyl)-1-methyl-1H-benzimidazol-6-yl)pyridin-2(1H)-one] | 75 |

Next, values leading:

| inhibition at 0.1 µM [%] | SMILES |
| --- | --- |
| 64 | Cc1nc2ccc(-n3ccc(OCc4ccc(Cl)s4)cc3=O)cn2c1C [Example 166, 4-((5-Chlorothiophen-2-yl)methoxy)-1-(2,3-dimethylimidazo[1,2-a]pyridin-6-yl)pyridin-2(1H)-one] |
| 81 | Cn1c([C@@H]2C[C@@H]2C(C)(C)O)nc2ccc(-n3ccc(OCc4ccc(Cl)c(F)c4)cc3=O)cc21 (racemic) [Example 220, 4-((4-Chloro-3-fluorobenzyl)oxy)-1-(2-((1RS,2SR)-2-(2-hydroxypropan-2-yl)cyclopropyl)-1-methyl-1H-benzimidazol-6-yl)pyridin-2(1H)-one] |
| 73 | Cc1c(C2CC2)nc2ccc(-n3ccc(OCc4ccc(Cl)c(F)c4)cc3=O)cn12 [Example 151, 4-((4-Chloro-3-fluorobenzyl)oxy)-1-(2-cyclopropyl-3-methylimidazo[1,2-a]pyridin-6-yl)pyridin-2(1H)-one] |
| 50 | Cn1c(C2CCC2)nc2ccc(-n3ccc(OCc4ccc(Cl)cc4)cc3=O)cc21 [Example 109, 4-((4-Chlorobenzyl)oxy)-1-(2-cyclobutyl-1-methyl-1H-benzimidazol-6-yl)pyridin-2(1H)-one] |
| 81 | Cc1c(C2CC2)nc2ccc(-n3ccc(OCc4ccc(F)cc4F)cc3=O)cn12 [Example 22, 1-(2-Cyclopropyl-3-methylimidazo[1,2-a]pyridin-6-yl)-4-((2,4-difluorobenzyl)oxy)pyridin-2(1H)-one] |
| 85 | Cn1c(C2CC2)nc2ccc(-n3ccc(OCc4ccc5sccc5c4)cc3=O)cc21 [Example 255, 4-(1-Benzothiophen-5-ylmethoxy)-1-(2-cyclopropyl-1-methyl-1H-benzimidazol-6-yl)pyridin-2(1H)-one] |
| 58 | Cc1nc2ccc(-n3ccc(OCc4ccc(Cl)cc4)cc3=O)cn2c1C [Example 25, 4-((4-Chlorobenzyl)oxy)-1-(2,3-dimethylimidazo[1,2-a]pyridin-6-yl)pyridin-2(1H)-one] |
| 59 | CCn1c(C2CC2)nc2ccc(-n3ccc(OCc4ccc(F)cc4)cc3=O)cc21 [Example 20, 1-(2-Cyclopropyl-1-ethyl-1H-benzimidazol-6-yl)-4-((4-fluorobenzyl)oxy)pyridin-2(1H)-one] |
| 81 | Cc1nc2ccc(-n3ccc(OCc4csc(Cl)c4)cc3=O)cn2c1C [Example 165, 4-((5-Chlorothiophen-3-yl)methoxy)-1-(2,3-dimethylimidazo[1,2-a]pyridin-6-yl)pyridin-2(1H)-one] |
| 80 | CC1CC1c1nc2ccc(-n3ccc(OCc4ccc(Cl)cc4)cc3=O)cc2n1C (stereo not shown) [Example 90, 4-((4-Chlorobenzyl)oxy)-1-(1-methyl-2-(2-methylcyclopropyl)-1H-benzimidazol-6-yl)pyridin-2(1H)-one] |
| 69 | Cn1c([C@H]2C[C@H]2F)nc2ccc(-n3ccc(OCc4ccc(Cl)cc4)cc3=O)cc21 (racemic) [Example 136, 4-((4-Chlorobenzyl)oxy)-1-(2-((1RS,2RS)-2-fluorocyclopropyl)-1-methyl-1H-benzimidazol-6-yl)pyridin-2(1H)-one] |
| 72 | CCc1nc2ccc(-n3ccc(OCc4csc(Cl)c4)cc3=O)cn2c1C [Example 172, 4-((5-Chlorothiophen-3-yl)methoxy)-1-(2-ethyl-3-methylimidazo[1,2-a]pyridin-6-yl)pyridin-2(1H)-one] |
| 56 | Cn1c(C2CC2)nc2ccc(-n3ccc(OCc4cc(F)cc(F)c4)cc3=O)cc21 [Example 119, 1-(2-Cyclopropyl-1-methyl-1H-benzimidazol-6-yl)-4-((3,5-difluorobenzyl)oxy)pyridin-2(1H)-one] |
| 61 | Cc1csc(COc2ccn(-c3ccc4nc(C5CC5)n(C)c4c3)c(=O)c2)c1 [Example 56, 1-(2-Cyclopropyl-1-methyl-1H-benzimidazol-6-yl)-4-((4-methyl-2-thienyl)methoxy)pyridin-2(1H)-one] |
